Reference: patent US20080220103A1, “METHOD FOR TREATING/CONTROLLING/KILLING FUNGI AND BACTERIA ON LIVING ANIMALS” (priority 2005, published 2008)
Converted amounts (≈) assume the structure as drawn. “And” between values parts separate entries of the source, which are not always exact repeats. Identical values can stand only once. Like-named read-outs stand apart in the source and are kept apart here.

Columns and labels:
[1] = test system: C. parapsilosis; assay: MIC, CLSI M27-A2; format: cell-based, Candida parapsilosis
Experimental: (§1) Minimum Inhibitory Concentration (MIC): Minimum inhibitory concentrations of synthetic and semisynthetic and natural products against dermatophytes were determined using a modification of the Clinical Laboratory Standards Institute (CLSI, formerly National Committee of Clinical Laboratory Standards, NCCLS) M38A standard method for dermatophytes, while MIC of these agents against Candida species were determined using the CLSI M27-A2 methodology. The method used to determine the MIC against bacteria was based on the CLSI document M7-A7.
(§2) The remaining essential oils were prepared in a dilution range of 0.03-16 μg/ml. For Candida the MIC was read at 24 hours and defined as the lowest concentration to inhibit 50% of fungal growth as compared to the growth control (Table 4).

[2] = test system: All dermatophytes; assay: MIC, modified CLSI M38A, pooled dermatophytes; format: cell-based, E. floccosum, T. rubrum, T. mentagrophytes
Experimental: as §1
(§3) For dermatophytes, serial dilutions of terbinafine, tolnaftate were prepared in a range of 0.004-2 μg/ml, while for miconazole concentrations ranged between 0.015-8 μg/ml. Finally, for essential oils, the concentrations tested were between 0.03-16 μg/ml. The only exception was tea tree oil where dilutions were prepared in a range of 0.0078-4 μg/ml. The MIC was read at 4 days post inoculation and defined as the lowest concentration of an agent to inhibit 80% of fungal growth as compared to the growth control (Table 2).
(§4) In the following Tables, MIC50 and MIC90 are defined as the minimal concentrations of a compound that can inhibit 50% and 90% of the tested organisms, respectively.

[3] = test system: T. mentagrophytes; assay: Minimum fungicidal concentration (Canton et al.); format: cell-based, Trichophyton mentagrophytes; settings: for MFC: Trichophyton mentagrophytes
Experimental: Minimum fungicidal concentration (MFC): The minimum fungicidal concentrations of various agents were determined using the technique described by Canton et al. (Antimicrob Agents Chemother. 2004 8:2477-82). In that method, fungal conidia were collected following growth on potato dextrose agar (PDA) plates and were used to inoculate 96-well plates containing different concentrations of agents. Following incubation at 35° C. for 4 days (for dermatophytes) or 24 hours (for yeast), wells showing no visible growth were cultured to determine the MFC (defined as the lowest concentration of a given agent that kills>99.999% of fungal conidia or spores). The MFC value represents the level of the agent at which spores or conidia were killed.

[4] = test system: All bacteria (Staphylococcus species); assay: MIC, CLSI M7-A7, pooled bacteria; format: cell-based, S. aureus, S. epidermidis
Experimental: as §1
For bacterial species, the medium used to evaluate the antibacterial activity of agents and essential oils was Mueller-Hinton (Oxoid Ltd., Basingstoke, Hampshire, England). Serial dilutions of miconazole, terbinafine, and tolnaftate were prepared in a range of 0.125-64 μg/ml and serial dilutions of tea tree oil were prepared in a range of 0.0078-4 μg/ml, while those for the rest of the essential oils were prepared in a range 0.031-16 μg/ml.
as §4

[5] = test system: All yeasts; assay: MIC, CLSI M27-A2, pooled yeasts; format: cell-based, C. albicans, C. parapsilosis; settings: n = 12
Experimental: as §1, §2, §4

[6] = test system: E. floccosum; assay: MIC, modified CLSI M38A broth dilution; format: cell-based, Epidermophyton floccosum
Experimental: as §1, §3

[7] = test system: T. rubrum; assay: MIC, modified CLSI M38A broth dilution; format: cell-based, Trichophyton rubrum
Experimental: as §1, §3

[8] = Lodderomyces parapsilosis, C. parapsilosis, n = 6
[9] = Epidermophyton floccosum, E. floccosum, n = 6
[10] = Trichophyton rubrum, T. rubrum, n = 6

CN(C/C=C/C#CC(C)(C)C)Cc1cccc2ccccc12 [Terbinafine, terbinafine]
MIC Range ([1]; C. parapsilosis, n = 6, listed as terbinafine): 0.25 µg/mL (≈ 0.858 µM) | MIC ([1]; Lodderomyces parapsilosis, C. parapsilosis strain 7629): 0.25 µg/mL (≈ 0.858 µM) | MIC ([1]; Lodderomyces parapsilosis, C. parapsilosis strain 7668): 0.25 µg/mL (≈ 0.858 µM) | MIC ([1]; Lodderomyces parapsilosis, C. parapsilosis strain 7672): 0.25 µg/mL (≈ 0.858 µM) | MIC ([1]; Lodderomyces parapsilosis, C. parapsilosis strain 7995): 0.25 µg/mL (≈ 0.858 µM) | MIC ([1]; Lodderomyces parapsilosis, C. parapsilosis strain 8148): 0.25 µg/mL (≈ 0.858 µM) | MIC ([1]; Lodderomyces parapsilosis, C. parapsilosis strain 8442): 0.25 µg/mL (≈ 0.858 µM) | MIC50 [1, 8]: 0.25 µg/mL (≈ 0.858 µM) | MIC90 [1, 8]: 0.25 µg/mL (≈ 0.858 µM) | MIC50 ([2]; n = 18): 0.03 µg/mL (≈ 0.103 µM) | MIC90 ([2]; n = 18): 0.06 µg/mL (≈ 0.206 µM) | MIC Range ([2]; n = 18): 0.015 µg/mL and 0.008 to 0.015 µg/mL | MIC Range ([2]; n = 18, listed as terbinafine): 0.008 to 0.06 µg/mL | MFC range (row MIC Range) ([3]; T. mentagrophytes, n = 6): 0.06 to 0.125 µg/mL | MFC ([3]; T. mentagrophytes strain 2124, read-out: MFC): 0.125 µg/mL (≈ 0.429 µM) | MFC ([3]; T. mentagrophytes strain 2125, read-out: MFC): 0.125 µg/mL (≈ 0.429 µM) | MFC ([3]; T. mentagrophytes strain 2127, read-out: MFC): 0.06 µg/mL (≈ 0.206 µM) | MFC ([3]; T. mentagrophytes strain 2128, read-out: MFC): 0.125 µg/mL (≈ 0.429 µM) | MFC ([3]; T. mentagrophytes, n = 6, read-out: MFC, row MIC50): 0.125 µg/mL (≈ 0.429 µM) | MFC ([3]; T. mentagrophytes, n = 6, read-out: MFC, row MIC90): 0.125 µg/mL (≈ 0.429 µM) | MIC50 ([4]; Staphylococcus, n = 12): > 64 µg/mL | MIC90 ([4]; Staphylococcus, n = 12): > 64 µg/mL | MIC Range ([4]; n = 12): >64 µg/mL | MIC Range ([4]; n = 12, listed as TERBINAFINE): >64 µg/mL | MIC Range ([4]; n = 12, listed as terbinafine): > 64 µg/mL | MIC50 [5]: 0.25 µg/mL (≈ 0.858 µM) | MIC90 [5]: 2 µg/mL (≈ 6.86 µM) | MIC Range ([6]; E. floccosum, n = 6): 0.03 to 0.06 µg/mL | MIC ([6]; Epidermophyton floccosum, E. floccosum strain 1666): 0.06 µg/mL (≈ 0.206 µM) | MIC ([6]; Epidermophyton floccosum, E. floccosum strain 1798): 0.03 µg/mL (≈ 0.103 µM) | MIC ([6]; Epidermophyton floccosum, E. floccosum strain 1925): 0.03 µg/mL (≈ 0.103 µM) | MIC ([6]; Epidermophyton floccosum, E. floccosum strain 1926): 0.06 µg/mL (≈ 0.206 µM) | MIC ([6]; Epidermophyton floccosum, E. floccosum strain 1961): 0.06 µg/mL (≈ 0.206 µM) | MIC ([6]; Epidermophyton floccosum, E. floccosum strain 2165): 0.06 µg/mL (≈ 0.206 µM) | MIC50 [6, 9]: 0.06 µg/mL (≈ 0.206 µM) | MIC90 [6, 9]: 0.06 µg/mL (≈ 0.206 µM) | MIC Range ([7]; T. rubrum, n = 6): 0.008 to 0.015 µg/mL | MIC ([7]; Trichophyton rubrum, T. rubrum strain 1967): 0.015 µg/mL (≈ 0.0515 µM) | MIC ([7]; Trichophyton rubrum, T. rubrum strain 2098): 0.015 µg/mL (≈ 0.0515 µM) | MIC ([7]; Trichophyton rubrum, T. rubrum strain 2246): 0.008 µg/mL (≈ 0.0275 µM) | MIC ([7]; Trichophyton rubrum, T. rubrum strain 8063): 0.015 µg/mL (≈ 0.0515 µM) | MIC ([7]; Trichophyton rubrum, T. rubrum strain 8071): 0.015 µg/mL (≈ 0.0515 µM) | MIC ([7]; Trichophyton rubrum, T. rubrum strain 8092): 0.015 µg/mL (≈ 0.0515 µM) | MIC50 [7, 10]: 0.015 µg/mL (≈ 0.0515 µM) | MIC90 [7, 10]: 0.015 µg/mL (≈ 0.0515 µM)
